According to ChEMBL document CHEMBL5724696, “Autophagy assay results for EUbOPEN Chemogenomics Library” (2024):

Key:
Type in all cases: functional, Homo sapiens
TERT-RPE1 = experiment: (§1) Here: values are normalized to the negative (DMSO; defined as 0% autophagy induction) and positive (250nM Torin1; mTOR inhibitor; defined as maximal inducer of autophagy = 100%) control compounds and represented as % of autophagy induction. […] The impact of autophagy induction on cells is complex and depends on the affected target. As such, the magnitude of a phenotype may not be equally mirrored in the %-value of autophagy induction and vice versa. The dynamics of the induction may indicate the mode of activation: e.g. activation via phosphorylation or a signaling cascade may occur fast, while activation via transcription factors may take considerably longer. […] Of note, treatment concentrations may be sub-optimal for specific compounds, leading to false negative annotations.; settings: Culturing Media DMEM/F12 (1:1), 1 % Penicillin/Streptomycin, 10% Fetal bovin serum Add-On: No, Screening Media Control DMEM/F12 (1:1), Screening Media Samples DMEM/F12 (1:1)
U2OS [1] = experiment: as §1; settings: Culturing Media DMEM, 1 % Penicillin/Streptomycin, 10% Fetal bovin serum Add-On: No, Screening Media Control DMEM, Screening Media Samples DMEM
U2OS [2] = experiment: as §1; settings: Culturing Media DMEM, 1 % Penicillin/Streptomycin, 10% Fetal bovin serum Add-On: No, Screening Media Control DMEM, Screening Media Samples DMEM; remark: listed apart in the source
[3] = Compound Concentration 0.5 uM, Timepoint 12 hours
[4] = Compound Concentration 0.5 uM, Timepoint 24 hours
[5] = Compound Concentration 0.5 uM, Timepoint 36 hours
[6] = Compound Concentration 0.5 uM, Timepoint 60 hours
[7] = Compound Concentration 2 uM, Timepoint 12 hours
[8] = Compound Concentration 2 uM, Timepoint 24 hours
[9] = Compound Concentration 2 uM, Timepoint 36 hours
[10] = Compound Concentration 2 uM, Timepoint 60 hours
[11] = Compound Concentration 10 uM, Timepoint 12 hours
[12] = Compound Concentration 10 uM, Timepoint 24 hours
[13] = Compound Concentration 10 uM, Timepoint 36 hours
[14] = Compound Concentration 10 uM, Timepoint 60 hours

Compound | autophagy induction (TERT-RPE1; [3]) | autophagy induction (TERT-RPE1; [4]) | autophagy induction (TERT-RPE1; [5]) | autophagy induction (TERT-RPE1; [6]) | autophagy induction (TERT-RPE1; [7]) | autophagy induction (TERT-RPE1; [8]) | autophagy induction (TERT-RPE1; [9]) | autophagy induction (TERT-RPE1; [10]) | autophagy induction (TERT-RPE1; [11]) | autophagy induction (TERT-RPE1; [12]) | autophagy induction (TERT-RPE1; [13]) | autophagy induction (TERT-RPE1; [14]) | autophagy induction (U2OS [1]; [3]) | autophagy induction (U2OS [1]; [4]) | autophagy induction (U2OS [1]; [5]) | autophagy induction (U2OS [1]; [6]) | autophagy induction (U2OS [1]; [7]) | autophagy induction (U2OS [1]; [8]) | autophagy induction (U2OS [1]; [9]) | autophagy induction (U2OS [1]; [10]) | further results
CCOC(=O)c1cc(C#N)c(N2CCC(C(=O)NS(=O)(=O)Cc3ccccc3)CC2)nc1C | -6.976% | -10.3002% | -8.825% | -14.4044% | -3.0862% | -5.808% | -6.285% | -11.624% | -2.8574% | -4.514% | -6.439% | -9.708% | -5.45% | -2.451% | -3.099% | -2.587% | 4.284% | 0.2818% | 0.3824% | -0.02347% | autophagy induction (U2OS [1]; [11]): -3.626%; autophagy induction (U2OS [1]; [12]): -2.74%; autophagy induction (U2OS [1]; [13]): -1.363%; autophagy induction (U2OS [1]; [14]): -0.00442%; autophagy induction (U2OS [2]; [3]): -1.238%; autophagy induction (U2OS [2]; [4]): -0.869%; autophagy induction (U2OS [2]; [5]): -0.6019%; autophagy induction (U2OS [2]; [6]): -13.2748%; autophagy induction (U2OS [2]; [7]): -11.375%; autophagy induction (U2OS [2]; [8]): -8.508%; autophagy induction (U2OS [2]; [9]): -7.086%; autophagy induction (U2OS [2]; [10]): -3.832%; autophagy induction (U2OS [2]; [11]): -0.3683%; autophagy induction (U2OS [2]; [12]): 1.86%; autophagy induction (U2OS [2]; [13]): -9.343%; autophagy induction (U2OS [2]; [14]): -16.8017%
Cc1csc(NC(=O)c2cc(F)cc(Oc3cncnc3)c2)n1 | -6.573% | -11.4508% | -15.1452% | -20.0235% | -3.733% | -9.437% | -10.535% | -13.1148% | -2.429% | -5.833% | -5.079% | -4.061% | -6.672% | -2.592% | -1.939% | -1.765% | -5.1627% | -3.72% | -2.553% | -1.843% | autophagy induction (U2OS [1]; [11]): -2.289%; autophagy induction (U2OS [1]; [12]): -0.7242%; autophagy induction (U2OS [1]; [13]): -0.5379%; autophagy induction (U2OS [1]; [14]): -1.609%; autophagy induction (U2OS [2]; [3]): -16.3524%; autophagy induction (U2OS [2]; [4]): -14.7733%; autophagy induction (U2OS [2]; [5]): -11.9866%; autophagy induction (U2OS [2]; [6]): -8.75%; autophagy induction (U2OS [2]; [7]): -9.821%; autophagy induction (U2OS [2]; [8]): -11.197%; autophagy induction (U2OS [2]; [9]): -11.4826%; autophagy induction (U2OS [2]; [10]): -11.3338%; autophagy induction (U2OS [2]; [11]): -1.626%; autophagy induction (U2OS [2]; [12]): -3.326%; autophagy induction (U2OS [2]; [13]): -2.706%; autophagy induction (U2OS [2]; [14]): -7.422%
CCCCN(CCCC)C(=O)CN1C[C@@H](c2ccc3c(c2)OCO3)[C@H](C(=O)O)[C@H]1c1ccc(OC)cc1 | -5.689% | -7.876% | -10.2076% | -16.9579% | -2.05% | -6.33% | -9.375% | -15.3533% | 0.4134% | 0.2558% | -0.8322% | -6.302% | -1.434% | -1.039% | -0.6288% | -0.1138% | -9.274% | -4.861% | -2.29% | -1.949% | autophagy induction (U2OS [1]; [11]): 6.695%; autophagy induction (U2OS [1]; [12]): 2.81%; autophagy induction (U2OS [1]; [13]): 1.829%; autophagy induction (U2OS [1]; [14]): -0.9275%; autophagy induction (U2OS [2]; [3]): -15.0632%; autophagy induction (U2OS [2]; [4]): -6.645%; autophagy induction (U2OS [2]; [5]): -7.125%; autophagy induction (U2OS [2]; [6]): -16.2807%; autophagy induction (U2OS [2]; [7]): -9.31%; autophagy induction (U2OS [2]; [8]): -9.369%; autophagy induction (U2OS [2]; [9]): -11.2096%; autophagy induction (U2OS [2]; [10]): -4.989%; autophagy induction (U2OS [2]; [11]): 9.199%; autophagy induction (U2OS [2]; [12]): 8.705%; autophagy induction (U2OS [2]; [13]): 6.119%; autophagy induction (U2OS [2]; [14]): 4.931%
C/C(=N\NC(=O)[C@@H]1C(=O)NC[C@H]1c1ccccc1)c1cccc(Br)c1 | 3.657% | -1.179% | -5.656% | -7.294% | -6.467% | -9.581% | -11.1295% | -14.064% | -5.576% | -6.043% | -7.363% | -9.435% | -3.442% | 0.5164% | 1.385% | -0.9425% | -6.368% | -5.034% | -3.37% | -2.754% | autophagy induction (U2OS [1]; [11]): -1.379%; autophagy induction (U2OS [1]; [12]): -1.755%; autophagy induction (U2OS [1]; [13]): -0.957%; autophagy induction (U2OS [1]; [14]): -1.418%; autophagy induction (U2OS [2]; [3]): 9.666%; autophagy induction (U2OS [2]; [4]): 0.07709%; autophagy induction (U2OS [2]; [5]): 4.021%; autophagy induction (U2OS [2]; [6]): -3.426%; autophagy induction (U2OS [2]; [7]): -4.579%; autophagy induction (U2OS [2]; [8]): -6.454%; autophagy induction (U2OS [2]; [9]): -2.749%; autophagy induction (U2OS [2]; [10]): -11.0743%; autophagy induction (U2OS [2]; [11]): -8.587%; autophagy induction (U2OS [2]; [12]): 1.184%; autophagy induction (U2OS [2]; [13]): -3.458%; autophagy induction (U2OS [2]; [14]): -5.559%
